Experimental findings from patent publication US5475132A, “Antifungal agents based on amides containing a phenyl group” (Rhone-Poulenc Agrochimie, priority 1988, dated 1995) are described below.

The test concerns Phytophthora citrophthora. As to the kind of experiment: Example B3: action on phytopathogenic soil fungi, growth on agar in Petri dishes. The test is classed as cell-based. The conditions noted are these: 120 h, 30 ppm, agar medium, 22° C., 5 days, read-out: inhibition of the development of the fungus.

In the case of `COc1ccc(-c2nc(-c3ccc(Cl)cc3)ccc2C(=O)N2CCOCC2)cc1OC` [Compound 345], the inhibition (commonly the share of the control response that was lost under treatment) at 30 ppm was at least 80%. With `CCN(C)C(=O)c1ccc(-c2ccc(Cl)cc2)nc1-c1ccc(OC)c(OC)c1` [Compound 347], the inhibition at 30 ppm is at least 80%. Next, `COc1ccc(-c2nc(-c3ccc(F)cc3)ccc2C(=O)N2CCOCC2)cc1OC` [Compound 349]: at least 80%; `CCN(C)C(=O)c1ccc(-c2ccc(F)cc2)nc1-c1ccc(OC)c(OC)c1` [Compound 350]: at least 80%. Under `COCCN(C)C(=O)c1ccc(-c2ccc(F)cc2)nc1-c1ccc(OC)c(OC)c1` [Compound 353] stands at least 80%; under `COCCN(C)C(=O)c1ccc(-c2ccccc2)nc1-c1ccc(OC)c(OC)c1` [Compound 354], at least 80%; under `COc1ccc(-c2nc(-c3ccc(C4CC4(Cl)Cl)cc3)ccc2C(=O)N2CCOCC2)cc1OC` (centres unmarked) [Compound 355], at least 80%.

`COc1ccc(-c2nc(-c3ccc(C(C)C)cc3)ccc2C(=O)N2CCOCC2)cc1OC` [Compound 356]: the inhibition at 30 ppm is at least 80%.

With `C=CCN(C)C(=O)c1ccc(-c2ccccc2)nc1-c1ccc(OC)c(OC)c1` [Compound 359], the inhibition at 30 ppm is at least 80%. As for `COc1ccc(-c2nc(-c3ccccc3)ccc2C(=O)N(C)C(C)C)cc1OC` [Compound 360], the inhibition at 30 ppm was at least 80%.

Take `COc1ccc(-c2nc(-c3ccc(Cl)cc3)ccc2C(=O)N(C)CC#N)cc1OC` [Compound 363]: the inhibition at 30 ppm is at least 80%.

With `CCN(CC)C(=O)c1ccc(-c2ccc(Cl)cc2)nc1-c1ccc(OC)c(OC)c1` [Compound 364], the inhibition at 30 ppm was at least 80%. Under `CCCN(C)C(=O)c1ccc(-c2ccccc2)nc1-c1ccc(OC)c(OC)c1` [Compound 365] stands at least 80%; under `COc1ccc(-c2nc(-c3ccc(Br)cc3)ccc2C(=O)N(C)CCOC(C)=O)cc1OC` [Compound 366], at least 80%. Regarding `COc1ccc(-c2nc(-c3ccc(Cl)cc3)c(C)cc2C(=O)N2CCOCC2)cc1OC` [Compound 367], the inhibition at 30 ppm is at least 80%. Under `COc1ccc(-c2nc(-c3ccc(F)cc3)c(C)cc2C(=O)N2CCOCC2)cc1OC` [Compound 368] stands at least 80%; under `CCN(C)C(=O)c1ccc(-c2ccccc2)nc1-c1ccc(OC)c(OC)c1` [Compound 369], at least 80%; under `COc1ccc(-c2nc(-c3ccccc3)ccc2C(=O)N(C)C)cc1OC` [Compound 370], at least 80%. For `COc1ccc(-c2nc(-c3ccc(Cl)cc3)ccc2C(=O)N2CCCC2)cc1OC` [Compound 373], the inhibition at 30 ppm is at least 80%.

Regarding `COc1ccc(-c2nc(-c3ccc(Cl)cc3)ccc2C(=O)N2CCCCC2)cc1OC` [Compound 376], the inhibition at 30 ppm is at least 80%. Next, `COc1ccc(-c2nc(-c3ccc(Cl)cc3)ccc2C(=O)N2CCC(O)CC2)cc1OC` [Compound 377]: at least 80%; `COc1ccc(-c2nc(-c3ccc(Cl)cc3)ccc2C(=O)N(C)Cc2ccco2)cc1OC` [Compound 378]: at least 80%; `COCCN(C)C(=O)c1ccc(-c2ccc(Cl)cc2)nc1-c1ccc(OC)c(OC)c1` [Compound 379]: at least 80%. Under `COc1ccc(-c2nc(-c3ccc(Br)cc3)ccc2C(=O)N(C)CCO)cc1OC` [Compound 380] stands at least 80%. Under `COc1ccc(-c2nc(-c3ccc(Cl)cc3)ccc2C(=O)N(C)CC2CCCO2)cc1OC` (centres unmarked) [Compound 381] stands at least 80%. Turning to `COc1ccc(-c2nc(-c3ccc(C#N)cc3)ccc2C(=O)N2CCOCC2)cc1OC` [Compound 382], the inhibition at 30 ppm is at least 80%. Next, `COc1ccc(-c2nc(-c3ccc(Cl)cc3)ccc2C(=O)N(C)CCO)cc1OC` [Compound 383]: at least 80%. Under `COc1ccc(-c2nc(-c3ccc(C)cc3)ccc2C(=O)N2CCOCC2)cc1OC` [Compound 384] stands at least 80%; under `COc1ccc(-c2nc(-c3ccc(Br)cc3)ccc2C(=O)N2CCOCC2)cc1OC` [Compound 385], at least 80%; under `C=CCN(C)C(=O)c1ccc(-c2ccc(Cl)cc2)nc1-c1ccc(OC)c(OC)c1` [Compound 386], at least 80%.

As to `CCN(CC)C(=O)c1ccc(-c2ccccc2)nc1-c1ccc(OC)c(OC)c1` [Compound 388], the inhibition at 30 ppm is at least 80%. Under `COc1ccc(-c2ccc(C(=O)N3CCOCC3)c(-c3ccc(OC)c(OC)c3)n2)cc1` [Compound 389] stands at least 80%.

Turning to `CCN(C)C(=O)c1ccc(-c2ccc(Br)cc2)nc1-c1ccc(OC)c(OC)c1` [Compound 390], the inhibition at 30 ppm was at least 80%. Under `COc1ccc(-c2nc(-c3ccccc3C)ccc2C(=O)N2CCOCC2)cc1OC` [Compound 391] stands at least 80%.

For the molecule `COc1ccc(-c2nc(-c3ccccc3Cl)ccc2C(=O)N2CCOCC2)cc1OC` [Compound 392], the inhibition at 30 ppm is at least 80%. Under `COCCN(C)C(=O)c1ccc(-c2ccc(Br)cc2)nc1-c1ccc(OC)c(OC)c1` [Compound 393] stands at least 80%; under `COc1ccc(-c2nc(-c3ccc(Cl)cc3)ccc2C(=O)N(C)OC)cc1OC` [Compound 394], at least 80%.

For `COc1ccc(-c2nc(-c3ccccc3)ccc2C(=O)N(C)CCO)cc1OC` [Compound 395], the inhibition at 30 ppm was at least 80%. Under `COc1ccc(-c2nc(-c3ccccc3)ccc2C(=O)N(C)CCOC(C)=O)cc1OC` [Compound 396] stands at least 80%.

Turning to `COc1ccc(-c2nc(-c3ccc(Cl)cc3)ccc2C(=O)N(C)CCOC(C)=O)cc1OC` [Compound 397], the inhibition at 30 ppm was at least 80%.

Regarding `COc1ccc(-c2nc(-c3ccc(Cl)cc3)ncc2C(=O)N2CCOCC2)cc1OC` [Compound 407, 2-(4-Chlorophenyl)-4-(3,4-dimethoxyphenyl)-5-morpholinocarbonylpyrimidine], the inhibition at 30 ppm was at least 80%. For the molecule `COc1ccc(-c2nc(-c3ccccc3)ncc2C(=O)N2CCOCC2)cc1OC` [Compound 414], the inhibition at 30 ppm is at least 80%. Under `CCN(C)C(=O)c1cnc(-c2ccccc2)nc1-c1ccc(OC)c(OC)c1` [Compound 415] stands at least 80%. Under `COCCN(C)C(=O)c1cnc(-c2ccccc2)nc1-c1ccc(OC)c(OC)c1` [Compound 416] stands at least 80%; under `CCN(CC)C(=O)c1cnc(-c2ccc(Cl)c(Cl)c2)nc1-c1ccc(OC)c(OC)c1` [Compound 420], at least 80%. With `COc1ccc(-c2nc(-c3cccc(C(F)(F)F)c3)ncc2C(=O)N2CCOCC2)cc1OC` [Compound 425], the inhibition at 30 ppm is at least 80%.

With `COc1ccc(-c2nc(-c3cccc(C(F)(F)F)c3)ncc2C(=O)O)cc1OC` [Compound 426], the inhibition at 30 ppm was at least 80%. Next, `COc1ccc(-c2nc(-c3ccc(Br)cc3)ncc2C(=O)N2CCOCC2)cc1OC` [Compound 427]: at least 80%; `CCN(C)C(=O)c1cnc(-c2cccc(C(F)(F)F)c2)nc1-c1ccc(OC)c(OC)c1` [Compound 428]: at least 80%; `CCN(CC)C(=O)c1cnc(-c2cccc(C(F)(F)F)c2)nc1-c1ccc(OC)c(OC)c1` [Compound 429]: at least 80%.
